We go through 5 compounds from doi:10.1101/2025.02.20.639278v1, “Discovery of inhibitors for bacterial Arr enzymes ADP-ribosylating and inactivating rifamycin antibiotics” (biorxiv, 2025).

Test [1] concerns T1, SmArr.
T1 construct: gene arr; class 1 integron gene; codon-optimized; His6-MBP tag cut off with TEV; E. coli BL21(DE3)
The test can be described thus: fluorescent NAD+ conversion assay. The note with it: 1 µM NAD+, 2 µM rifampicin, 50 mM PIPES pH 7.5, 0.01% Triton X-100, room temperature. In kind it is biochemical, Stenotrophomonas maltophilia.

In test [2] the target is T2, PaArr (Pseudomonas aeruginosa, UniProt O87490).
T2 construct: gene arr-2; class 1 integron gene; codon-optimized; His6-MBP tag cut off with TEV; E. coli BL21(DE3); monomer
As to the kind of experiment: fluorescent NAD+ conversion assay. In kind it is biochemical.

For test [3], the target named is T3, MaArr (Mycobacteroides abscessus, UniProt B1MH05).
T3 construct: gene MAB_0591; chromosomal gene; codon-optimized; His6-MBP tag cut off with TEV; E. coli BL21(DE3)
The test can be described thus: fluorescent NAD+ conversion assay. In kind it is biochemical.

The target in test [4] is T4, MsArr (Mycolicibacterium smegmatis, UniProt A0QRS5, V47I/Y72F).
T4 construct: gene MSMEG_1221; V47I Y72F variant gene; His6-MBP tag cut off with TEV; E. coli BL21(DE3)
The test can be described thus: fluorescent NAD+ conversion assay. The class given is biochemical.

Test [5] deals with T2, PaArr. As to the kind of experiment: X-ray crystal structure, […] Å. The class given is binding. The note with it: crystal with 1 mM rifampicin; an additional rifampicin molecule at crystal contacts, likely artifact.
Test [6] addresses T5, TNKS2 (Homo sapiens, UniProt Q9H2K2).
T5 sequence (Q9H2K2 1-1166): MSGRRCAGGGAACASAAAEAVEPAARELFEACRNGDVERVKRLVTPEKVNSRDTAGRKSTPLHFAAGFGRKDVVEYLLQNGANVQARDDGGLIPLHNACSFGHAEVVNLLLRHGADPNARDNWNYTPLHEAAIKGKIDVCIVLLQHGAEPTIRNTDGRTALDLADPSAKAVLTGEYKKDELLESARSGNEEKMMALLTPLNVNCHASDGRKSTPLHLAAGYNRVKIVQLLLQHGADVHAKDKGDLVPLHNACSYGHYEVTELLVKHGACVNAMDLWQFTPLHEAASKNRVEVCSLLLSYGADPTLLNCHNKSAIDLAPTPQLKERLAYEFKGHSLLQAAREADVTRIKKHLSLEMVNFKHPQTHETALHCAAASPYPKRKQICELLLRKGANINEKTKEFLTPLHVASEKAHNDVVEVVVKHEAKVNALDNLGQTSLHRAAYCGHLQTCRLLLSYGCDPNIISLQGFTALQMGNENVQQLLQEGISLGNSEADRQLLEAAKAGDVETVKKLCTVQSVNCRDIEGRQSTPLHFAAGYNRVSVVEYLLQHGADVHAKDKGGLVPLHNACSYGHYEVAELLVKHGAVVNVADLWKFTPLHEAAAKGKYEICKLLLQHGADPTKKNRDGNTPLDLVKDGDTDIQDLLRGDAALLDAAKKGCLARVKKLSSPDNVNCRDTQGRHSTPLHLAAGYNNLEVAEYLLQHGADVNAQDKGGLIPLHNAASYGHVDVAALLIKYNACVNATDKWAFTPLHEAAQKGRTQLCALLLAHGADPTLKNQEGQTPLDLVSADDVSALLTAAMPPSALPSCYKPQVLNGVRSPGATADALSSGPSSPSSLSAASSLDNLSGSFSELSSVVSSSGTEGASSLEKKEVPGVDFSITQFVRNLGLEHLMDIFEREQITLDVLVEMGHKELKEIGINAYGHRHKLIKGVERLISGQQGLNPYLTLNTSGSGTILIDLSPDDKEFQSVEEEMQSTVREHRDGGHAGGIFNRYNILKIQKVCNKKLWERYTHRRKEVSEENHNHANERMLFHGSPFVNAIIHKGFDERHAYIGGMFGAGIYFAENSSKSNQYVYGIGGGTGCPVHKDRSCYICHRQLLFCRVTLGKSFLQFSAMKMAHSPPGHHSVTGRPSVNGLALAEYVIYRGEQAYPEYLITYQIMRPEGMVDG
As to the kind of experiment: human ADP-ribosyltransferase activity panel. In kind it is biochemical.

The target of test [7] is PARP2 (Homo sapiens, UniProt Q9UGN5). The test can be described thus: human ADP-ribosyltransferase activity panel. The class given is biochemical.
Test [8] addresses T3, MaArr. As to the kind of experiment: fluorescent NAD+ conversion assay. The class given is biochemical. The source holds these as a separate data set.
Test [9] addresses T2, PaArr. As to the kind of experiment: fluorescent NAD+ conversion assay. The class given is biochemical. This is another data set of the same source.

In test [1], `Oc1ccc(O)c2c1sc1nncn12` [compound 13, 13] returned an IC50 of 1200 nM.
Take `Nc1nc2ccc(Cl)cc2c(O)c1-c1ccccc1` [compound 1]: the inhibition at 100 µM in [2] and in test [3] was less than 50% throughout. Moreover, the concentration for half-maximal inhibition (IC50) in [4] was 1300 nM.
In the case of `CO[C@H]1/C=C/O[C@@]2(C)Oc3c(C)c(O)c4c(O)c(c(/C=N/N5CCN(C)CC5)c(O)c4c3C2=O)NC(=O)/C(C)=C\C=C\[C@H](C)[C@H](O)[C@@H](C)[C@@H](O)[C@@H](C)[C@H](OC(C)=O)[C@@H]1C` [rifampicin], the “X-ray crystal structure, 1.4 Å” value in test [5] is given as “In the crystal structure of PaArr, an additional rifampicin molecule stacks against these two areas”.
Take `NS(=O)(=O)c1ccc(-c2nc3ccccc3c(=O)[nH]2)cc1` [compound 2]: the IC50 result in [6] is “showed strong inhibition of TNKS2 and PARP2 as expected (Figure 3E)”; in test [7], “showed strong inhibition of TNKS2 and PARP2 as expected (Figure 3E)”; in [8], 10000 to 100000 nM; in test [1], 10000 to 100000 nM; in test [9], 10000 to 100000 nM; in test [4], 2000 nM.
On to `O=c1c(O)c(-c2cc(O)c(O)c(O)c2)oc2cc(O)cc(O)c12` [compound 7], for which the IC50 amounted to 1700 nM in test [1] and 470 nM in test [9].

As a reminder, the IC50 is the point on the concentration scale where inhibition reaches its midpoint. For orientation: inhibition means the change of the read-out against control, counted positive when it falls. High values mean a response far below the control, low ones a response near the control.
